Experimental data as given in US11478466B2, “Small molecule promoting osteoblast differentiation” (Cornell University, priority 2019, dated 2022).

Tests used:
[1] = tested on: RAW 264.7 murine macrophage cell line; assay: Osteoclast differentiation (TRAP staining, qRT-PCR) in RAW 264.7 cells; assay type: cell-based, mouse
Procedure: To address the specificity of DIPQUO for stimulating an osteogenic versus osteoclastic program, the RAW 264.7 murine macrophage cell line was assayed for osteoclast differentiation by staining for tartrate-resistant acid phosphatase (TRAP) to distinguish multinucleated osteoclasts from macrophages. […] Thus, DIPQUO appears to be primarily supportive of osteogenesis.
The RAW 264.7 macrophage cell line was purchased from ATCC and maintained in DMEM with 10% FBS. Cells were treated with 10 μM DIPQUO or 50 ng/ml RANKL (Sigma) for 4 days. Cells were fixed in 70% acetone/10% formaldehyde/20% citrate and TRAP staining was achieved using the Leukocyte Acid Phosphatase kit (Sigma 387A-1KT).
For quantitative RT-PCR analysis of gene expression in C2C12 cultures, cells were treated for 2 days with 10 μM DIPQUO and harvested into Trizol reagent (Invitrogen). One microgram of RNA was reverse transcribed using the VILO-RT kit (Invitrogen) to generate cDNA, which was diluted 1:25 in RNase-free H2O for qPCR with Sybr green using the Roche 480 II LightCycler and the 2^−ΔΔCT method (Livak and Schmittgen, 2001). For analysis of osteoclast gene expression, RAW 264.7 cells were treated with DMSO, 50 ng/ml RANKL, or 10 μM DIPQUO for 4 days, then harvested into Trizol reagent and processed as above. Mouse qPCR primers are as follows. Runx2: F([…]) (SEQ ID NO:1); R([…]) (SEQ ID NO:2); Dlx5: F([…]) (SEQ ID NO:3); R([…]) (SEQ ID NO:4); Osterix: F([…]) (SEQ ID NO:5); R([…]) (SEQ ID NO:6); ALP: F([…]) (SEQ ID NO:7); R([…]) (SEQ ID NO:8); Osteocalcin: F([…]) (SEQ ID NO:9); R([…]) (SEQ ID NO:10); Osteoactivin: F([…]) (SEQ ID NO:11); R([…]) (SEQ ID NO:12); CTSK: F([…]) (SEQ ID NO:13); R([…]) (SEQ ID NO:14); MMP9: F([…]) (SEQ ID NO:15); R([…]) (SEQ ID NO:16); Gapdh F([…]) (SEQ ID NO:17); R([…]) (SEQ ID NO:18). RNA-seq studies were carried out with the assistance of the Weill Cornell Genomics Core Facility, using the Illumina HiSeq4000 next-generation sequencer to generate reads from cDNA libraries generated from three biological replicates of day 2 DMSO- or DIPQUO-treated C2C12 cells. […]

p38 MAPK = assay: Western blotting of p38 MAPK in BRITER cells; assay type: cell-based, mouse; settings: BMP-2/BMP-4 repression by tamoxifen
Procedure: Cells were maintained in DMEM with 10% FBS. For analysis of DIPQUO effects independent of BMP signaling, BMP-2 and BMP-4 knockdown was achieved by treating cells overnight with 1 μM 4-hydroxytamoxifen (4-OHT), followed by continued maintenance in 1 μM 4-OHT. Cells were serum-starved for at least 6 hours before treatment with recombinant BMP protein or DIPQUO as noted in figure legends.
Whole cell extracts were collected from C2C12 or BRITER cells in complete lysis buffer (20 mM Tris, 150 mM NaCl, 50 mM NaF, 1% NP40 substitute, HALT protease inhibitor cocktail (ThermoScientific). Proteins were resolved by electrophoresis on pre-cast 10% NuPage Bis-Tris gels (Invitrogen) and transferred to PVDF membranes (Bio-Rad). Membranes were blocked in 5% BSA-TBS-0.5% Tween-20 for 15 minutes, then incubated at 4° overnight with primary antibodies. Antibodies used were: rabbit anti-phospho-p38 MAPK (cat. no. 9211), anti-p38 MAPK XP (8690), anti-phospho-SMAD1/5 (9516), anti-SMAD1 XP (6944), anti-phospho-SMAD2/3 (8828), anti-SMAD2/3 XP (8685), anti-phospho-JNK (4668), anti-SAPK/JNK (9252), anti-phospho-Akt XP (4060), pan anti-Akt (4691), anti-phospho ERK p42/p44 (4377), anti-ERK p42/p44 (9102), anti-phospho-MKK3/6 (12280), anti-MKK3 (8535), anti-phospho-TAK1 (4531), anti-TAK1 (5206), anti-HA (3274), and anti-FLAG (14793); all from Cell Signaling); and mouse anti-p38α (cat. no. […]

Compound: Cc1cc(C)c2[nH]c(=O)c(-c3[nH]cnc3-c3ccccc3)cc2c1 [RU-0226606, 6,8-dimethyl-3-(4-phenyl-1H-imidazol-5-yl)quinolin-2(1H)-one]
- expression of CTSK and MMP9 (qRT-PCR) ([1]; RAW 264.7, 10 μM, 4 days): upregulated, albeit to a lower level compared with RANKL induction
- TRAP staining of multinucleated osteoclasts ([1]; RAW 264.7, 4 days, DIPQUO 10 μM, RANKL 50 ng/ml): comparatively few TRAP-positive cells
- p38 MAPK activation in BRITER cells (p38 MAPK): maintained the ability to activate p38 MAPK even under conditions of BMP repression
